For assay [1], the system named is Plasmodium falciparum. The assay is described as follows: microbe, parasite or virus in culture.
Description: Antiplasmodial activity against Plasmodium falciparum harboring K1 allele group of msp1, 3D7 allele group of msp2 gene and 94 bp of 7A11, 196bp of C4M79 and 336bp of C4M69 locus measured on day 23 by [3H]hypoxanthine incorporation assay
Assay [2] relates to Plasmodium falciparum. Type of assay: functional, organism-based. Particulars: 552 h.

pIC50: −log10 of the molar value.

By pIC50 is commonly meant the IC50 on a negative log10 scale, so that one unit is a factor of ten. The low end stands for a large IC50, the high end for a small IC50.

In assay [1], `OC(c1cc(C(F)(F)F)nc2c(C(F)(F)F)cccc12)C1CCCCN1` (stereo unspecified) [MEFLOQUINE] had a negative-log IC50 (pIC50) of 7.47.
In assay [1], `CCc1nc(N)nc(N)c1-c1ccc(Cl)cc1` [PYRIMETHAMINE] showed a pIC50 of 5.60.
On the same count and under the same terms, then `CC1(C)N=C(N)N=C(N)N1c1ccc(Cl)cc1` [CYCLOGUANIL], with 6.60; and `CCNCc1cc(Nc2ccnc3cc(Cl)ccc23)ccc1O` [DESETHYL AMODIAQUINE], with 7.52.
Compound `O=C1C(O)=C([C@H]2CC[C@H](c3ccc(Cl)cc3)CC2)C(=O)c2ccccc21` [ATOVAQUONE] gave a pIC50 in assay [2] of 6.41.
The compound `CCCCN(CCCC)CC(O)c1cc(Cl)cc2c1-c1ccc(Cl)cc1/C2=C/c1ccc(Cl)cc1` (stereo unspecified) [LUMEFANTRINE] gave a pIC50 in assay [1] of 7.82.

The record behind these values is ChEMBL document CHEMBL1275428, “First case of emergence of atovaquone-proguanil resistance in Plasmodium falciparum during treatment in a traveler in Comoros” (Antimicrob Agents Chemother, 2008).
